In brackets after ≈: the same amount, converted by molar mass. Where two headings read alike, the source gives them in different places.
What was measured:
[1] = Water-solubility, stirred in water 24 h at 25 °C, HPLC quantification; type: physicochemical
Procedure: The mixture was centrifuged at 100,000 g for 30 min at 25 °C. The concentration of test compounds was estimated on the basis of their peak areas using calibration curves prepared by HPLC analyses of authentic samples.

KB human cancer cells [2] = assay: Hydrolysis of prodrugs by KB cells, release of docetaxel (HPLC); type: cell-based; details: 5 μmol compound, 20 mg KB cells in RPMI 1640, 37 °C, 24 h
Procedure: To a 5-mL vial containing RPMI 1640 medium (1 mL, Nissui Pharmaceutical Co. Ltd.) and KB cells (20 mg) was added 5 μmol of each compound. The mixture was incubated at 37 °C for 24 h. The cells and medium were separated by centrifugation at 10,000 g for 5 min. The cells were extracted with MeOH. MeOH extract was concentrated, and the residue was partitioned between H2O and CH2Cl2. The medium was extracted with CH2Cl2. The CH2Cl2 fractions were combined, concentrated, and analyzed by HPLC. The yield of docetaxel was calculated on the basis of the peak area from HPLC using a calibration curve provided by HPLC analyses of authentic docetaxel.

KB human cancer cells [3] = assay: MTT cytotoxicity assay in KB cells; type: cell-based; details: 24 h treatment
Procedure: (§1) The sensitivity of KB and MCF-7 cells to docetaxel or 4–6 was determined according to the previously reported method. Cells were diluted with culture medium to the seeding density (10^5 cells/mL), suspended in 96-well tissue culture plates (100 μL/well), preincubated at 37 °C for 4 h, and then treated for 24 h with docetaxel or 4–6 at various concentrations to obtain a dose–response curve for each compound. After incubation, 20 μL MTT solution (2.5 mg/mL) was added to each well and the plates were further incubated for 4 h. Absorbance at 570 nm was measured with a microplate reader model 450 (BIO-RAD). Dose-response curves were plotted on a semi-log scale as percentage of the cell numbers in control cultures not exposed to test compounds.

MCF-7 human cancer cells = assay: MTT cytotoxicity assay in MCF-7 cells; type: cell-based; details: for IC50 MCF-7 cells: 24 h treatment
Procedure: as §1

Molecule | solubility at 24 h [1] | Conversion to docetaxel (hydrolysis by KB cells) (KB human cancer cells [2]) | IC50 KB cells (KB human cancer cells [3]) | IC50 MCF-7 cells (MCF-7 human cancer cells) | Fold (water-solubility relative to docetaxel) ([1]; relative to docetaxel) | solubility at 24 h ([1]; thermodynamic from solid) | IC50 (KB human cancer cells [3]; Homo sapiens) | IC50 (MCF-7 human cancer cells; Homo sapiens, MCF7, 24 h treatment)
7-propionyldocetaxel 3''-O-β-D-galactopyranoside [Compound 5] | 25.5 µM | 45% | 41 µg/mL | 28 µg/mL | – | – | – | –
7-propionyldocetaxel 3''-O-β-D-xylopyranoside [Compound 6] | 20.2 µM | 76% | 25 µg/mL | 12 µg/mL | – | – | – | –
CC(=O)O[C@@]12CO[C@@H]1C[C@H](O)[C@@]1(C)C(=O)[C@H](O)C3=C(C)[C@@H](OC(=O)[C@H](O)[C@@H](NC(=O)OC(C)(C)C)c4ccccc4)C[C@@](O)([C@@H](OC(=O)c4ccccc4)[C@H]21)C3(C)C [Docetaxel] | – | – | – | – | 1 fold | 0.5 µM (≈ 0.404 µg/mL) | 12 µg/mL (≈ 14.9 µM) | 5 µg/mL (≈ 6.19 µM)

Reference: article PMC6264731, “Chemo-Enzymatic Synthesis of Ester-Linked Docetaxel-Monosaccharide Conjugates as Water-Soluble Prodrugs” (Molecules, 2011)
